# Source: patent EP4285989A1 (priority 2021, dated 2022)
# Experiments:
# Type in all cases: cell-based
# [1] = test system: Clostridium butyricum M-II588; conditions: 1 w/v% carbohydrate, sugar-free medium, anaerobic, 37°C, 20 hours; compared to other carbohydrates (FIG. 1)
# [2] = test system: Clostridium butyricum M-II588; conditions: 1 w/v% carbohydrate, anaerobic, 37°C; for hydrogen generation (hydrogen production amount): 24 hours, calculated from increased amount of gas × hydrogen concentration (FIG. 6); for increased amount of gas: preculture 5 v/v%, 24 hours (FIG. 5)
# [3] = test system: Clostridium butyricum M-II588; conditions: 1 w/v% carbohydrate, anaerobic, 37°C, 20 hours
# [4] = test system: Staphylococcus aureus IFO 12732; experiment: Anti-bacterial action: Staphylococcus aureus count in (co-)culture, dilution plate technique; conditions: 20 hours, 37°C, anaerobic; 0.5 w/v% α-CD; butyric acid bacteria 9.4×10^6 CFU/mL; S. aureus 7.5×10^2 CFU/mL (FIG. 4)
# Method: Culture of Staphylococcus aureus alone, Staphylococcus aureus and 0.5 w/v% α-CD in coexistence, Staphylococcus aureus and butyric acid bacteria in coexistence, or Staphylococcus aureus and butyric acid bacteria in coexistence with 0.5 w/v% α-CD added was performed at 37°C under an anaerobic condition, and the number of Staphylococcus aureus was counted 20 hours after the start of culture. The amount of Staphylococcus aureus added was 7.5×10^2 CFU/mL as the final concentration, and the amount of butyric acid bacteria added was 9.4×10^6 CFU/mL as the final concentration. The number of Staphylococcus aureus was measured by the dilution plate technique, that is, spreading a moderately diluted culture solution on an agar medium, culturing it at 37°C under an aerobic condition, and counting the number of colonies formed. The test results are shown as mean ± standard error of three samples.
Molecule,proliferation of butyric acid bacteria (turbidity change (ΔOD) at 660 nm) [1],hydrogen generation (hydrogen production amount) [2],increased amount of gas [2],production of butyric acid ([3]; compared to other carbohydrates (FIG. 2)),production of acetic acid ([3]; compared to other carbohydrates (FIG. 3)),proliferation of Staphylococcus aureus (number of Staphylococcus aureus) [4]
α-cyclodextrin [α-CD],significantly promoted,hydrogen was generated,significantly increased,significantly promoted,significantly promoted,almost no proliferation inhibiting effect
"OC[C@H]1O[C@@H](O[C@H]2[C@H](O)[C@@H](O)[C@@H](O[C@]3(CO)O[C@H](CO)[C@@H](O)[C@@H]3O)O[C@@H]2CO)[C@H](O)[C@@H](O)[C@H]1O [LS, Lactosucrose, reference compound]",–,very little,very little,–,–,–
